Test results as given in patent US5916873A, “Teicoplanin derivatives” (Eli Lilly and Company, priority 1998, dated 1999).
Converted amounts (≈) assume the structure as drawn.

Columns and labels:
[1] = system: H. influR D/BL+; type: cell-based, H. influ; details: Table 2C; strain RD/BL+
Description: (§1) The antibacterial efficacy of the present teicoplanin derivatives is illustrated by the following tables. The minimal inhibitory concentrations (MICs) were determined using a standard broth micro-dilution assay.

[2] = system: S. h. 415; assay: standard broth micro-dilution MIC; type: cell-based; details: Table 2B; strain 415
Description: as §1

[3] = system: S. epi 270; assay: standard broth micro-dilution MIC; type: cell-based; details: Table 2B; strain 270
Description: as §1

[4] = system: E. f. 180-1; assay: standard broth micro-dilution MIC; type: cell-based; details: Table 2B; strain 180-1
Description: as §1

[5] = system: S. aureus 447; assay: standard broth micro-dilution MIC; type: cell-based; details: Table 2A; strain 447
Description: as §1

[6] = system: S. aureus X400; assay: standard broth micro-dilution MIC; type: cell-based; details: Table 2A; strain X400
Description: as §1

[7] = system: S. h. 105; assay: standard broth micro-dilution MIC; type: cell-based; details: Table 2B; strain 105
Description: as §1

[8] = system: H. influ RD; assay: standard broth micro-dilution MIC; type: cell-based; details: Table 2C; strain RD
Description: as §1

[9] = system: St. pneumo P1; assay: standard broth micro-dilution MIC; type: cell-based; details: Table 2C; strain P1
Description: as §1

[10] = system: M. cat M12; assay: standard broth micro-dilution MIC; type: cell-based; details: Table 2C; strain M12
Description: as §1

[11] = system: St. pyro C203; assay: standard broth micro-dilution MIC; type: cell-based; details: Table 2C; strain C203
Description: as §1

[12] = system: E. f. 180; assay: standard broth micro-dilution MIC; type: cell-based; details: Table 2B; strain 180
Description: as §1

[13] = system: S. aureus 491; assay: standard broth micro-dilution MIC; type: cell-based; details: Table 2A; strain 491
Description: as §1

[14] = system: S. aureus SA1199R; assay: standard broth micro-dilution MIC; type: cell-based; details: Table 2B; strain SA1199R
Description: as §1

[15] = system: E. gall. 245; assay: standard broth micro-dilution MIC; type: cell-based; details: Table 2C; strain 245
Description: as §1

[16] = system: E. f. 276; assay: standard broth micro-dilution MIC; type: cell-based; details: Table 2C; strain 276
Description: as §1

[17] = system: EC14; assay: standard broth micro-dilution MIC; type: cell-based; details: Table 2C; strain EC14
Description: as §1

[18] = system: S. aureus SA1199B; assay: standard broth micro-dilution MIC; type: cell-based; details: Table 2B; strain SA1199B
Description: as §1

[19] = system: S. aureus 489; assay: standard broth micro-dilution MIC; type: cell-based; details: Table 2A; strain 489
Description: as §1

[20] = system: E. f. 2041; assay: standard broth micro-dilution MIC; type: cell-based; details: Table 2B; strain 2041
Description: as §1

[21] = system: S. aureus S13E; assay: standard broth micro-dilution MIC; type: cell-based; details: Table 2A; strain S13E
Description: as §1

[22] = system: S. aureus 446; assay: standard broth micro-dilution MIC; type: cell-based; details: Table 2A; strain 446
Description: as §1

[23] = system: S. aureus X778; assay: standard broth micro-dilution MIC; type: cell-based; details: Table 2A; strain X778
Description: as §1

[24] = system: S. aureus SA1199; assay: standard broth micro-dilution MIC; type: cell-based; details: Table 2A; strain SA1199
Description: as §1

[25] = system: vancomycin-resistant enterococci; assay: mean geometric MIC, vancomycin-resistant enterococci, broth micro-dilution; type: cell-based, Enterococcus faecium and Enterococcus faecalis; details: Table 3, representative vancomycin-resistant enterococci
Description: as §1

[26] = system: vancomycin-sensitive enterococci; assay: mean geometric MIC, vancomycin-sensitive enterococci, broth micro-dilution; type: cell-based, Enterococcus faecium and Enterococcus faecalis; details: Table 3, representative vancomycin-sensitive enterococci
Description: as §1

| Compound | MIC S. h. 415 [2] [µg/mL] | MIC S. epi 270 [3] | MIC E. f. 180-1 [4] | MIC S. aureus 447 [5] | MIC S. aureus X400 [6] | MIC S. h. 105 [7] | MIC St. pneumo P1 [9] | MIC M. cat M12 [10] | MIC St. pyro C203 [11] | MIC E. f. 180 [12] | MIC S. aureus 491 [13] | MIC S. aureus SA1199R [14] | MIC E. gall. 245 [15] | MIC E. f. 276 [16] | MIC EC14 [17] [µg/mL] | MIC S. aureus SA1199B [18] | MIC S. aureus 489 [19] | MIC E. f. 2041 [20] | MIC S. aureus S13E [21] | MIC S. aureus 446 [22] | also measured |
| --- | --- | --- | --- | --- | --- | --- | --- | --- | --- | --- | --- | --- | --- | --- | --- | --- | --- | --- | --- | --- | --- |
| CC(=O)NC1C(OC2c3ccc(c(Cl)c3)Oc3cc4cc(c3OC3OC(CO)C(O)C(O)C3NCc3ccc(-c5ccccc5)cc3)Oc3ccc(cc3Cl)CC3NC(=O)C(NCc5ccc(-c6ccccc6)cc5)c5ccc(O)c(c5)Oc5cc(O)cc(c5)C(NC3=O)C(=O)NC4C(=O)NC3C(=O)NC2C(=O)NC(C(=O)O)c2cc(O)cc(OC4OC(CO)C(O)C(O)C4O)c2-c2cc3ccc2O)OC(CO)C(O)C1O.O=C(O)C(F)(F)F (stereo not drawn) [Example 1, Deacyl Teicoplanin, Bis(4-phenylbenzyl) Derivative] | 4 | 1 µg/mL | ≤ .06 µg/mL | 2 µg/mL | 0.25 µg/mL | ≤ .06 µg/mL | ≤ .06 µg/mL | ≤ .06 µg/mL | ≤ .06 µg/mL | ≤ 06 µg/mL | 0.25 µg/mL | ≤ .06 µg/mL | ≤ .06 µg/mL | ≤ .06 µg/mL | > 64 | 0.5 µg/mL | 0.125 µg/mL | ≤ .06 µg/mL | 0.25 µg/mL | 0.5 µg/mL | MIC H. influR D/BL+ [1]: 64 µg/mL; MIC H. influ RD [8]: 64 µg/mL; MIC S. aureus X778 [23]: 0.25 µg/mL; MIC S. aureus SA1199 [24]: 0.25 µg/mL |
| CC(=O)NC1C(OC2c3ccc(c(Cl)c3)Oc3cc4cc(c3OC3OC(CO)C(O)C(O)C3N)Oc3ccc(cc3Cl)CC3NC(=O)C(NCc5ccc(-c6ccccc6)cc5)c5ccc(O)c(c5)Oc5cc(O)cc(c5)C(NC3=O)C(=O)NC4C(=O)NC3C(=O)NC2C(=O)NC(C(=O)O)c2cc(O)cc(OC4OC(CO)C(O)C(O)C4O)c2-c2cc3ccc2O)OC(CO)C(O)C1O (stereo not drawn) [Example 2, Deacyl Teicoplanin, N^15-(4-phenylbenzyl) Derivative] | 8 (≈ 4.23 µM) | 0.25 µg/mL (≈ 0.132 µM) | 0.25 µg/mL (≈ 0.132 µM) | 0.25 µg/mL (≈ 0.132 µM) | ≤ .03 µg/mL | 0.25 µg/mL (≈ 0.132 µM) | ≤ .03 µg/mL | 0.25 µg/mL (≈ 0.132 µM) | ≤ .03 µg/mL | 32 µg/mL (≈ 16.9 µM) | ≤ .03 µg/mL | ≤ .03 µg/mL | 0.25 µg/mL (≈ 0.132 µM) | ≤ .03 µg/mL | > 32 | ≤ .03 µg/mL | ≤ .03 µg/mL | ≤ .03 µg/mL | ≤ .03 µg/mL | ≤ .03 µg/mL | Resist. MIC [25]: > 32 µg/mL; Sens. MIC [26]: 2.6 µg/mL; MIC H. influR D/BL+ [1]: 32 µg/mL (≈ 16.9 µM); MIC H. influ RD [8]: 16 µg/mL (≈ 8.46 µM); MIC S. aureus X778 [23]: 0.125 µg/mL (≈ 0.0661 µM); MIC S. aureus SA1199 [24]: ≤ .03 µg/mL |
| CCCCc1ccc(CNC2C(=O)NC3Cc4ccc(c(Cl)c4)Oc4cc5cc(c4OC4OC(CO)C(O)C(O)C4NCc4ccc(CCCC)cc4)Oc4ccc(cc4Cl)C(OC4OC(CO)C(O)C(O)C4NC(C)=O)C4NC(=O)C(NC(=O)C5NC(=O)C(NC3=O)c3cc(O)cc(c3)Oc3cc2ccc3O)c2ccc(O)c(c2)-c2c(OC3OC(CO)C(O)C(O)C3O)cc(O)cc2C(C(=O)O)NC4=O)cc1 (stereo not drawn) [Example 5] | 4 (≈ 1.98 µM) | 0.25 µg/mL (≈ 0.124 µM) | ≤ .06 µg/mL | 0.5 µg/mL (≈ 0.248 µM) | 0.25 µg/mL (≈ 0.124 µM) | 0.125 µg/mL (≈ 0.0619 µM) | ≤ .06 µg/mL | ≤ .06 µg/mL | ≤ .06 µg/mL | ≤ .06 µg/mL | 0.25 µg/mL (≈ 0.124 µM) | ≤ .06 µg/mL | ≤ .06 µg/mL | ≤ .06 µg/mL | > 64 | 0.25 µg/mL (≈ 0.124 µM) | 0.5 µg/mL (≈ 0.248 µM) | ≤ .06 µg/mL | 1 µg/mL (≈ 0.496 µM) | 0.5 µg/mL (≈ 0.248 µM) | Resist. MIC [25]: 0.84 µg/mL; Sens. MIC [26]: 0.25 µg/mL; MIC H. influR D/BL+ [1]: 1 µg/mL (≈ 0.496 µM); MIC H. influ RD [8]: 64 µg/mL (≈ 31.7 µM); MIC S. aureus X778 [23]: 0.25 µg/mL (≈ 0.124 µM); MIC S. aureus SA1199 [24]: 0.25 µg/mL (≈ 0.124 µM) |
| CC(=O)NC1C(OC2c3ccc(c(Cl)c3)Oc3cc4cc(c3OC3OC(CO)C(O)C(O)C3NCc3ccc5ccccc5c3)Oc3ccc(cc3Cl)CC3NC(=O)C(NCc5ccc6ccccc6c5)c5ccc(O)c(c5)Oc5cc(O)cc(c5)C(NC3=O)C(=O)NC4C(=O)NC3C(=O)NC2C(=O)NC(C(=O)O)c2cc(O)cc(OC4OC(CO)C(O)C(O)C4O)c2-c2cc3ccc2O)OC(CO)C(O)C1O (stereo not drawn) [Example 6] | 4 (≈ 1.99 µM) | ≤ .06 µg/mL | ≤ .06 µg/mL | ≤ .06 µg/mL | ≤ .06 µg/mL | ≤ .06 µg/mL | ≤ .06 µg/mL | ≤ .06 µg/mL | ≤ .06 µg/mL | 0.25 µg/mL (≈ 0.125 µM) | ≤ .06 µg/mL | ≤ .06 µg/mL | ≤ .06 µg/mL | ≤ .06 µg/mL | > 64 | ≤ .06 µg/mL | ≤ .06 µg/mL | ≤ .06 µg/mL | ≤ .06 µg/mL | ≤ .06 µg/mL | Resist. MIC [25]: 3.4 µg/mL; Sens. MIC [26]: 0.11 µg/mL; MIC H. influR D/BL+ [1]: 1 µg/mL (≈ 0.499 µM); MIC H. influ RD [8]: 16 µg/mL (≈ 7.98 µM); MIC S. aureus X778 [23]: ≤ .06 µg/mL; MIC S. aureus SA1199 [24]: ≤ .06 µg/mL |
| CC(=O)NC1C(OC2c3ccc(c(Cl)c3)Oc3cc4cc(c3OC3OC(CO)C(O)C(O)C3NCc3cccc(Oc5ccccc5)c3)Oc3ccc(cc3Cl)CC3NC(=O)C(NCc5cccc(Oc6ccccc6)c5)c5ccc(O)c(c5)Oc5cc(O)cc(c5)C(NC3=O)C(=O)NC4C(=O)NC3C(=O)NC2C(=O)NC(C(=O)O)c2cc(O)cc(OC4OC(CO)C(O)C(O)C4O)c2-c2cc3ccc2O)OC(CO)C(O)C1O (stereo not drawn) [Example 11] | 16 (≈ 7.66 µM) | ≤ .06 µg/mL | 0.25 µg/mL (≈ 0.12 µM) | 1 µg/mL (≈ 0.478 µM) | 0.5 µg/mL (≈ 0.239 µM) | > 64 µg/mL | ≤ .06 µg/mL | ≤ .06 µg/mL | ≤ .06 µg/mL | 1 µg/mL (≈ 0.478 µM) | 0.25 µg/mL (≈ 0.12 µM) | ≤ .06 µg/mL | 0.125 µg/mL (≈ 0.0598 µM) | 0.25 µg/mL (≈ 0.12 µM) | > 64 | 0.25 µg/mL (≈ 0.12 µM) | 1 µg/mL (≈ 0.478 µM) | ≤ .06 µg/mL | 2 µg/mL (≈ 0.957 µM) | 2 µg/mL (≈ 0.957 µM) | Resist. MIC [25]: 3.4 µg/mL; Sens. MIC [26]: 0.11 µg/mL; MIC S. aureus X778 [23]: 0.25 µg/mL (≈ 0.12 µM); MIC S. aureus SA1199 [24]: 0.5 µg/mL (≈ 0.239 µM) |
